# Source: article PMC6072853 (Frontiers in Pharmacology, 2018)
# What was measured:
# Type in all cases: cell-based, human
# SiHa = assay: MTT antiproliferative assay, SiHa; settings: Homo sapiens, 72 h, read-out: Growth inhibition (%) ± SEM
# Excerpt: (§1) Gynecological cancer cell lines, including ovarian (A2780), cervical (HeLa), and breast cancer cell lines (MCF7, T47D, MDA-MB-231, and MDA-MB-361) were purchased from the European Collection of Authenticated Cell Cultures (ECACC, Salisbury, United Kingdom). Additional cervical cell lines (SiHa and C33A) and a non-cancerous immortalized, mammary gland epithelial cell line (hTERT-HME1) were purchased from LGC Standards GmbH (Wesel, Germany). Non-cancerous fibroblast cells (MRC-5) were also obtained from the ECACC. All cells were cultured in minimal essential medium supplemented with 10% fetal bovine serum, 1% non-essential amino acids, and 1% antibiotic-antimycotic mixture, in humidified air containing 5% CO2 at 37°C. Immortalized hTERT-HME1 cells were maintained in serum-free mammary epithelial cell growth medium (MEGM) supplemented with insulin, human epidermal growth factor (hEGF), hydrocortisone, bovine pituitary extract, and an antibiotic-antimycotic mixture. All the medium and supplements were purchased from Lonza Group Ltd. (Basel, Switzerland).
# (§2) The antiproliferative properties of the compounds were assessed by an MTT assay ([Mosmann, 1983]). Cells were seeded onto 96-well microplates at a density of 10,000 cells/well (MDA-MB-361 and C33A) or 5,000 cells/well (all other cell lines). After an overnight incubation, fresh medium containing the test compounds (at a concentration of 10 or 30 μM) was added. After incubation for 72 h at 37°C in humidified air, [3-(4,5-dimethylthiazol-2-yl)-2,5-diphenyltetrazolium bromide] (MTT) solution (5 mg/mL) was added. Purple formazan crystals were formed by the living cells during a 4 h contact period, which were assayed by spectrophotometry after having been dissolved in 100 μL DMSO. Untreated cells served as control, and cisplatin (CIS) (Ebewe Pharma GmbH, Unterach, Austria) was used as a reference compound. […] Two independent measurements were performed with five parallel wells. To present preliminary data concerning tumor selectivity of the potent compounds, the procedure was repeated on MRC-5 fibroblast and hTERT-HME1 immortalized mammary gland epithelial cells under the same experimental conditions.
# MDA-MB-231 = assay: MTT antiproliferative assay, MDA-MB-231; settings: Homo sapiens, 72 h, read-out: Growth inhibition (%) ± SEM; for inhibition at 10 µM: MDA-MB-231, 10 μM; for inhibition at 30 µM: MDA-MB-231, 30 μM
# Excerpt: as §1, §2
# MCF-7 = assay: MTT antiproliferative assay, MCF-7; settings: Homo sapiens, MCF7, 72 h, read-out: Growth inhibition (%) ± SEM; for inhibition at 10 µM: MCF-7, 10 μM; for inhibition at 30 µM: MCF-7, 30 μM
# Excerpt: as §1, §2
# HeLa = assay: MTT antiproliferative assay, HeLa; settings: Homo sapiens, 72 h; for inhibition at 10 µM / inhibition at 30 µM: read-out: Growth inhibition (%) ± SEM
# Excerpt: as §1, §2
# MDA-MB-361 = assay: MTT antiproliferative assay, MDA-MB-361; settings: Homo sapiens, 72 h, read-out: Growth inhibition (%) ± SEM; for inhibition at 10 µM: MDA-MB-361, 10 μM; for inhibition at 30 µM: MDA-MB-361, 30 μM
# Excerpt: as §1, §2
# T47D = assay: MTT antiproliferative assay, T47D; settings: Homo sapiens, 72 h, read-out: Growth inhibition (%) ± SEM
# Excerpt: as §1, §2
# A2780 = assay: MTT antiproliferative assay, A2780; settings: Homo sapiens, 72 h, read-out: Growth inhibition (%) ± SEM; for inhibition at 10 µM: A2780, 10 μM; for inhibition at 30 µM: A2780, 30 μM
# Excerpt: as §1, §2
# C33A = assay: MTT antiproliferative assay, C33A; settings: Homo sapiens, C-33-A, 72 h, read-out: Growth inhibition (%) ± SEM
# Excerpt: as §1, §2
# MRC-5 = assay: MTT assay, non-cancerous fibroblasts MRC-5; settings: Homo sapiens, MRC5, 72 h, read-out: Growth inhibition (%) ± SEM
# Excerpt: as §1, §2
SMILES,inhibition at 10 µM (SiHa) [%],inhibition at 30 µM (SiHa) [%],inhibition at 10 µM (MDA-MB-231) [%],inhibition at 30 µM (MDA-MB-231) [%],inhibition at 10 µM (MCF-7) [%],inhibition at 30 µM (MCF-7) [%],inhibition at 10 µM (HeLa) [%],inhibition at 30 µM (HeLa) [%],inhibition at 10 µM (MDA-MB-361) [%],inhibition at 30 µM (MDA-MB-361) [%],inhibition at 10 µM (T47D) [%],inhibition at 30 µM (T47D) [%],inhibition at 10 µM (A2780) [%],inhibition at 30 µM (A2780) [%],inhibition at 10 µM (C33A) [%],inhibition at 30 µM (C33A) [%],IC50 (HeLa; read-out: calculated IC50 value) [nM],"inhibition at 10 µM (MRC-5; MRC-5, 10 μM) [%]","inhibition at 30 µM (MRC-5; MRC-5, 30 μM) [%]"
"C[C@]12CC[C@H]3[C@@H](CCC4=CC(=O)CC[C@@H]43)[C@@H]1CC[C@H]2OC(=O)c1ccc([N+](=O)[O-])cc1[N+](=O)[O-] [Compound 6, 17α-19-nortestosterone-17-yl 2′,4′-dinitrobenzoate]",< 20,< 20,< 20,< 20,< 20,35.9 ± 1.4,32 ± 2.9,26.5 ± 2.3,< 20,< 20,< 20,47.2 ± 2.6,< 20,31.9 ± 2.6,< 20,< 20,–,–,–
"C[C@]12CC[C@H]3[C@@H](CCC4=CC(=O)CC[C@@H]43)[C@@H]1CC[C@H]2Br [Compound 4, 17α-bromo-19-nortestosterone]",< 20,< 20,< 20,< 20,< 20,< 20,94.4 ± 0.7,94.1 ± 0.5,< 20,< 20,< 20,< 20,< 20,54.4 ± 1.6,< 20,< 20,1690,11.9 ± 2.3,20.4 ± 2.1
"C[C@]12CC[C@H]3[C@@H](CCC4=CC(=O)CC[C@@H]43)[C@@H]1CC[C@H]2O [Compound 2, 17α-19-nortestosterone]",< 20,< 20,< 20,< 20,< 20,27.7 ± 3.7,28.1 ± 4,37.9 ± 3.4,< 20,< 20,< 20,< 20,< 20,< 20,< 20,< 20,–,–,–
